The values below come from article PMC8269692 (Biochemistry, 2021).

The target in this assay is T1, human macrophage galactose-type lectin (hMGL) extracellular domain (Homo sapiens, UniProt Q8IUN9).
T1 sequence (Q8IUN9 with tags, fused parts or gaps isoform Q8IUN9-2): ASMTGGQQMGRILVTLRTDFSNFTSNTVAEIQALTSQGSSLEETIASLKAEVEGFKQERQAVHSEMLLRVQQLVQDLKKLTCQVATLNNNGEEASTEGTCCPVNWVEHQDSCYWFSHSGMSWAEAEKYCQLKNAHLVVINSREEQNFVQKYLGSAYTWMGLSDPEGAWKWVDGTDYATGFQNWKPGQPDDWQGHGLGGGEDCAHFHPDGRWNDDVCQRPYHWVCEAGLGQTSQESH
Nature of the assay: ITC titration of ligands into hMGL. The format is binding. The note with it: for KA: one-set-of-sites model.

[1] abbreviates: ITC, buffered D2O (10 mM HEPES sodium salt, 50 mM NaCl, 2 mM CaCl2, pH 7.4), 25 °C.
Where [2] appears, read: ITC, buffered D2O, pH 7.4, 25 °C.
Where [3] appears, read: ITC, buffered H2O (10 mM HEPES sodium salt, 50 mM NaCl, 2 mM CaCl2, pH 7.4), 25 °C.
Setting [4] is: ITC, buffered H2O, pH 7.4, 25 °C.
Where [5] appears, read: deuterium isotope effect, DIE = H2O – D2O.

One may read the Kd as the free concentration of one partner at which half of the binding sites on the other are occupied at equilibrium, for simple one-to-one binding.

Turning to `CC(=O)N[C@H]1C(O)O[C@H](CO)[C@H](O)[C@@H]1O` (stereo partly drawn) [GalNAc, N-acetyl-D-galactosamine], under setting [1], the Kd amounted to 7.25 µM and the KA is given as 13.79 ×10^4 M^–1. Under setting [2], the “n (number of binding sites, stoichiometry)” value amounted to 0.97; the ΔG result is on record as “–7.01 kcal mol^–1”; the ΔH result is “–6.81 kcal mol^–1”; the “Δ−(TΔS)” value was “–0.20 kcal mol^–1”. For the same compound, under setting [3], the Kd came to 17.7 µM and the KA is 5.64 ×10^4 M^–1. Under setting [4], the ΔG result is “–6.49 kcal mol^–1”, the ΔH entry was “–11.30 kcal mol^–1” and the “Δ−(TΔS)” value is 4.81 kcal mol^–1. Moreover, the “n (number of binding sites, stoichiometry)” value (ITC, buffered H2O, pH 7.4, 25 °C, n normalized to active cell concentration of the dissociating trimer) is 0.99. Further, under setting [5], the ΔΔG is on record as 0.52 kcal mol^–1, the ΔΔH entry was “–4.49 kcal mol^–1” and the “Δ−(TΔS)” value worked out at 5.01 kcal mol^–1. Moreover, under “deuterium isotope effect, DIE = H2O – D2O, listed as free glycan”, the ΔΔH is reported as −4.49 kcal mol^–1.

Turning to `CC(=O)N[C@H]1[C@@H](O[C@H](C)[C@H](N)C(=O)O)O[C@H](CO)[C@H](O)[C@@H]1O` [Thr-Tn], under setting [3], the Kd was in the range of 16 to 17 µM.

For `CO[C@@H]1O[C@H](CO)[C@@H](O)[C@H](O)[C@H]1O` [methyl β-glucopyranoside], the “affinity for hMGL (result in words)” value (ITC, buffered H2O, 25 °C) was “no indication of a detectable affinity”.

With `CO[C@H]1O[C@H](CO)[C@H](O)[C@H](O)[C@H]1NC(C)=O` [α-Me-GalNAc, Methyl N-acetyl-α-D-galactosamine], for the setting “ITC, buffered H2O, 25 °C”, the “affinity relative to β-anomer and GalNAcα1-O-Thr conjugate” value was determined as 2 fold.
